Measured values as given in patent publication EP4745135A1 (Gluetacs Therapeutics (Shanghai) Co., Ltd., priority 2023, dated 2025).

Legend:
[1] = target: T1, human Cereblon WT GST-tagged protein (Homo sapiens, UniProt Q96SW2); test: CRBN-binding affinity, HTRF (CEREBLON BINDING kit); conditions: for inhibition at 0.5 µM: read-out: Inhibition Rate at 0.5 µM (%); for inhibition at 2 µM: read-out: Inhibition Rate at 2 µM (%)
T1 construct: purchased CISBIO 64BDCRBNPEH

[2] = system: Human multiple myeloma cell (MM.1S); test: Tumor cell proliferation inhibition (CellTiter-Meiluncell luminescent cell viability assay); conditions: for inhibition at 0.01 µM / inhibition at 0.5 µM: Homo sapiens, MM1.S, 96 h; for inhibition at 0.01 µM: read-out: Inhibition Rate at 10 nM (%); for inhibition at 0.5 µM: read-out: Inhibition Rate at 500 nM (%)
[3] = system: Human acute myeloid leukemia cell line: Kasumi-1; test: as above; conditions: Kasumi 1, 96 h; for inhibition at 0.01 µM: read-out: Inhibition Rate at 10 nM (%); for inhibition at 0.5 µM: read-out: Inhibition Rate at 500 nM (%)
Method: The tumor cells used herein were cultured in a cell culture medium listed in table 2 at 37°C in an incubator with 5% CO2. Prior to experimentation, all cell lines used were correctly identified by STR profiling, and tested negative for mycoplasma contamination using a mycoplasma detection kit through routine screenings.
The IC50 values of the compounds of the present disclosure (including the compounds in Table 1 and Examples) were determined using the CellTiter-Meiluncell Luminescent Cell Viability Assay Kit from Dalian Meilun Biotech Co., Ltd. The detailed procedure is as follows: Tumor cells were seeded in 96-well cell culture plates at the densities specified in Table 3. On the following day, the test compounds of the present disclosure were subjected to serial dilution. The dilution can be performed according to one of the following two methods: • (1) The first dilution method: The test compounds of the present disclosure (including the compounds in Table 1 and Examples) were subjected to 5-fold serial dilutions starting from a highest concentration of 2000 µM, resulting in a total of 9 concentrations from high to low (2000, 400, 80, 16, 3.2, 0.64, 0.128, 0.0256, 0.00512 µM). Subsequently, 0.5 µL of the test compound dilution was transferred into the 96-well plate containing the cells, with each well containing 100 µL of cell culture medium. […] Into the 96-well plate, the diluted test compounds and corresponding detection reagents were added, resulting in final test compound concentrations of 500 nM and 10 nM, respectively. The experimental procedure is described below using the diluted 2 µM test compound as an example.
0.5 µL of the aforementioned diluted compound of the present disclosure (including the compounds in Table 1 and Examples) was added to the seeded cells in 100 µL of medium, yielding a final test compound concentration of 10 nM. After the cells were treated with the compounds of the present disclosure for a specified period, the cell viability assay reagent was added to the culture medium according to the kit's instructions to determine cell viability. […] All controls were treated using the same procedure as the compounds of the present disclosure. The growth inhibition curves for the compounds of the present disclosure were plotted using Prism GraphPad software, and the IC50 values were calculated therefrom.

[4] = system: Human myeloid monocytic leukemia cell (MV-4-11); test: as above; conditions: MV4-11, 96 h; for inhibition at 0.01 µM: read-out: Inhibition Rate at 10 nM (%); for inhibition at 0.5 µM: read-out: Inhibition Rate at 500 nM (%)
GSPT1 = test: Western blot, degradation of substrate protein in hPBMCs; assay type: cell-based, Human
[5] = system: Human T cell acute lymphoblastic leukemia cell (CCRF-CEM); test: Tumor cell proliferation inhibition (CellTiter-Meiluncell luminescent cell viability assay); conditions: 96 h; for inhibition at 0.01 µM: read-out: Inhibition Rate at 10 nM (%); for inhibition at 0.5 µM: read-out: Inhibition Rate at 500 nM (%)
[6] = system: Human T lymphocytic leukemia cell line: Jurkat; test: as above; conditions: 96 h; for inhibition at 0.01 µM: read-out: Inhibition Rate at 10 nM (%); for inhibition at 0.5 µM: read-out: Inhibition Rate at 500 nM (%)
IKZF1 = target: T2, IKZF1 (Homo sapiens, UniProt Q13422+Q96SW2); test: Western blot, degradation of substrate protein in hPBMCs; assay type: cell-based
T2 construct: effects of the compounds of the present disclosure on the expression of target proteins in cells; endogenous in cells; host or cells: human PBMCs (Milecell Biotechnologies)
T2 sequence (Q13422 whole entry): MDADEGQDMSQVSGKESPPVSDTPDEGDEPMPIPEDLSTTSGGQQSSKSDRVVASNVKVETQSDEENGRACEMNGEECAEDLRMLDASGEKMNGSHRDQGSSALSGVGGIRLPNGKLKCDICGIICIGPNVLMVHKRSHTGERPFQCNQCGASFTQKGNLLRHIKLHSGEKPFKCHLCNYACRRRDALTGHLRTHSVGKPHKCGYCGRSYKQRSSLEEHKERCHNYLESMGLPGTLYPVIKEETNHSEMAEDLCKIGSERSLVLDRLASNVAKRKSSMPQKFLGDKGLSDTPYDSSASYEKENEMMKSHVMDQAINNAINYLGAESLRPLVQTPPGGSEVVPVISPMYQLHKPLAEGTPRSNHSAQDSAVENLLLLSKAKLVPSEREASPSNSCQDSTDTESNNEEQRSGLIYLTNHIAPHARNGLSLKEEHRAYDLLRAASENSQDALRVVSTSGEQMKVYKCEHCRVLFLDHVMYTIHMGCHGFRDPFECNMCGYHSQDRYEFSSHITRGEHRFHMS
T2 sequence (Q96SW2 whole entry): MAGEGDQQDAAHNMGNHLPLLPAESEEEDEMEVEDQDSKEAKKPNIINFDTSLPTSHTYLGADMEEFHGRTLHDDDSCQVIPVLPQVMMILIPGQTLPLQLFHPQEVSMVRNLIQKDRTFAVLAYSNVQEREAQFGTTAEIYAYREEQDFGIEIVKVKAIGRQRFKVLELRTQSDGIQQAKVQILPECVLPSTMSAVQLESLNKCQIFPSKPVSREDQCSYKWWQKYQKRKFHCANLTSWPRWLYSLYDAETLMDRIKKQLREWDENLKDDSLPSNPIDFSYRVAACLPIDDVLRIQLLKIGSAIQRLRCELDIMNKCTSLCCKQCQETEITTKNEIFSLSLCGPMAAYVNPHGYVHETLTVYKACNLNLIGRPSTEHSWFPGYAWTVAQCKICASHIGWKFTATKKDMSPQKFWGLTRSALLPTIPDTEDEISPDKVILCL
T2 sequence (Q16531 whole entry partner): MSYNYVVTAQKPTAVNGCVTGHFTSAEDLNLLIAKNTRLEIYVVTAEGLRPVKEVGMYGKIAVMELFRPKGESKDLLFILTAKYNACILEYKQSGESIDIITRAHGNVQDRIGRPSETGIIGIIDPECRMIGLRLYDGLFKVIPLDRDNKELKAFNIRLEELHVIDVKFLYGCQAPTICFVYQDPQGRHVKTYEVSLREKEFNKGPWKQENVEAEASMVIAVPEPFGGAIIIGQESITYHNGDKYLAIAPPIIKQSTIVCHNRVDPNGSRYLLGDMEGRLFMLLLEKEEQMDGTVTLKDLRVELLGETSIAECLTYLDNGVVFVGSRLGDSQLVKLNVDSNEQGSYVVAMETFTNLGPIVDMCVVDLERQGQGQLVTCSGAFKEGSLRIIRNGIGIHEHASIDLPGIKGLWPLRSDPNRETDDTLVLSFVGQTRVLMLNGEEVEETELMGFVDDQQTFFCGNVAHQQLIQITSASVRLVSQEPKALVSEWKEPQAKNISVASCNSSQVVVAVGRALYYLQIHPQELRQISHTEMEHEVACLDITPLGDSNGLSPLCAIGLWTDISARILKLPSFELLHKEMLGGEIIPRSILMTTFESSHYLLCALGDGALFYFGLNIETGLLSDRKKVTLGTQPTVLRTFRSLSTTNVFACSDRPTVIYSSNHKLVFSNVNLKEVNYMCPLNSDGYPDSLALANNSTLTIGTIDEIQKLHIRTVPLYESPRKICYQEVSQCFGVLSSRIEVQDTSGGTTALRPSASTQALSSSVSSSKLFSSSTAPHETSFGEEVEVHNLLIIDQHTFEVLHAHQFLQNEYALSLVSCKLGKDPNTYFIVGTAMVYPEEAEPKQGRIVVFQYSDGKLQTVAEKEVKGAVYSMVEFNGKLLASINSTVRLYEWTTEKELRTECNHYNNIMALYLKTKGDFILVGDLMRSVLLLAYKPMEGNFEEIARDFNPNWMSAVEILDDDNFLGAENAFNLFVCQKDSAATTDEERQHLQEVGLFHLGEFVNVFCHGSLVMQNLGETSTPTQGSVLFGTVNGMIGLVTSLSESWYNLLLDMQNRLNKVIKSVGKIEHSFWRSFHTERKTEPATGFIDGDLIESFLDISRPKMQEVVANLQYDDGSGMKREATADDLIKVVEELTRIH

CK1α = target: T3, CK1α (Homo sapiens, UniProt P48729+Q96SW2); test: as above; assay type: cell-based
T3 construct: effects of the compounds of the present disclosure on the expression of target proteins in cells; endogenous in cells; host or cells: human PBMCs (Milecell Biotechnologies)
T3 sequence (P48729 whole entry): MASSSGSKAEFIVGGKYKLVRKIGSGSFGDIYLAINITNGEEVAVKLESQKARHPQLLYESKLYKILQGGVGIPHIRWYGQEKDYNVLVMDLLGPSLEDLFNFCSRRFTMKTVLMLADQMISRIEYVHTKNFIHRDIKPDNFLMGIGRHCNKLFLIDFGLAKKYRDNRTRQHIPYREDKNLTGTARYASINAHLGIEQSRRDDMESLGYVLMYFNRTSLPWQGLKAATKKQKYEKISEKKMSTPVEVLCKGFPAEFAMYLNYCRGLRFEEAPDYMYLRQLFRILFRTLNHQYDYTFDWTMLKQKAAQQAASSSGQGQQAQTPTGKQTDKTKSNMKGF
T3 sequence (Q96SW2 whole entry): as the sequence (Q96SW2 whole entry) above
T3 sequence (Q16531 whole entry partner): as the sequence (Q16531 whole entry partner) above

WEE1 = target: T4, WEE1 (Homo sapiens, UniProt P30291+Q96SW2); test: as above; assay type: cell-based
T4 construct: effects of the compounds of the present disclosure on the expression of target proteins in cells; endogenous in cells; host or cells: human PBMCs (Milecell Biotechnologies)
T4 sequence (P30291 whole entry): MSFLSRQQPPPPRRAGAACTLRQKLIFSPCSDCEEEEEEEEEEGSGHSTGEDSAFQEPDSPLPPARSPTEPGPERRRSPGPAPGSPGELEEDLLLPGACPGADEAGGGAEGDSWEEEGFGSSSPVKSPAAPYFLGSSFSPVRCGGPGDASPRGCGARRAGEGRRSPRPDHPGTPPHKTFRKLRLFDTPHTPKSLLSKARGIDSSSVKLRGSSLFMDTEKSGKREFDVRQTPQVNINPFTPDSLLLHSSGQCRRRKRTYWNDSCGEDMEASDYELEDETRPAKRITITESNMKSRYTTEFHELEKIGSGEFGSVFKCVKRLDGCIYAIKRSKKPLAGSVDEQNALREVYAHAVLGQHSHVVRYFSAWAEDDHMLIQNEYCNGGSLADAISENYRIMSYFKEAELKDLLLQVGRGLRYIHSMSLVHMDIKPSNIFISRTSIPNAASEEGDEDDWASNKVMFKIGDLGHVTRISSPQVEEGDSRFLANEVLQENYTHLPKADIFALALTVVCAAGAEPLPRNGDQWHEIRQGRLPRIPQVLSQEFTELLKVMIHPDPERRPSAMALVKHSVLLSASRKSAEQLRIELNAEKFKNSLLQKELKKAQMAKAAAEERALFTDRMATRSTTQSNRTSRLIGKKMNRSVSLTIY
T4 sequence (Q96SW2 whole entry): as the sequence (Q96SW2 whole entry) above
T4 sequence (Q16531 whole entry partner): as the sequence (Q16531 whole entry partner) above

IKZF2 = target: T5, IKZF2 (Homo sapiens, UniProt Q96SW2+Q9UKS7); test: as above; assay type: cell-based
T5 construct: effects of the compounds of the present disclosure on the expression of target proteins in cells; endogenous in cells; host or cells: human PBMCs (Milecell Biotechnologies)
T5 sequence (Q9UKS7 whole entry): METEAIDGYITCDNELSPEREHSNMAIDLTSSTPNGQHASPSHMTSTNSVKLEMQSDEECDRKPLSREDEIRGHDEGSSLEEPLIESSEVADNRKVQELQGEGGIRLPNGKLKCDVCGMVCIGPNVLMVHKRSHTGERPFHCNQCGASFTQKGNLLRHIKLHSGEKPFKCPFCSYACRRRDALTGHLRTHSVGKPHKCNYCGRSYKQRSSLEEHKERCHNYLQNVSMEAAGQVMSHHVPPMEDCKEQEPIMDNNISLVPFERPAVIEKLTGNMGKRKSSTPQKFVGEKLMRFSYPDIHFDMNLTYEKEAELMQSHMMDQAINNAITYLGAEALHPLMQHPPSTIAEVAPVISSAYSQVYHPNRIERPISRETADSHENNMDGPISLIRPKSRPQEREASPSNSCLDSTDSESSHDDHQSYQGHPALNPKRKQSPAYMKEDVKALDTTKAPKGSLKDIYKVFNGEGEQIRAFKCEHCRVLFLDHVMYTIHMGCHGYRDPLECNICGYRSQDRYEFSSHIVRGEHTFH
T5 sequence (Q96SW2 whole entry): as the sequence (Q96SW2 whole entry) above
T5 sequence (Q16531 whole entry partner): as the sequence (Q16531 whole entry partner) above

IKZF3 = target: T6, IKZF3 (Homo sapiens, UniProt Q96SW2+Q9UKT9); test: as above; assay type: cell-based
T6 construct: effects of the compounds of the present disclosure on the expression of target proteins in cells; endogenous in cells; host or cells: human PBMCs (Milecell Biotechnologies)
T6 sequence (Q9UKT9 whole entry): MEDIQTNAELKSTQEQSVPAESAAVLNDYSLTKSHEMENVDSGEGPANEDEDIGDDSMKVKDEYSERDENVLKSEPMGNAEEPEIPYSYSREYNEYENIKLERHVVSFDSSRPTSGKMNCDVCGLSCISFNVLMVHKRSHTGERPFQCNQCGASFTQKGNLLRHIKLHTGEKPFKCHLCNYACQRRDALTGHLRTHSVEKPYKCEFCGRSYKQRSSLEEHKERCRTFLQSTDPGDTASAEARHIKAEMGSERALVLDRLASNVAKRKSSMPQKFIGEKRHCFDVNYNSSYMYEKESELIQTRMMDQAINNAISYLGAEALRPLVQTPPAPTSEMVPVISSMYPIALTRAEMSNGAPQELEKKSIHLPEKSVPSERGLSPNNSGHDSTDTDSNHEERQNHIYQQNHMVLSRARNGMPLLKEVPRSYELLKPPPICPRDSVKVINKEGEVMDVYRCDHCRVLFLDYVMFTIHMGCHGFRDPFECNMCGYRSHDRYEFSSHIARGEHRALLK
T6 sequence (Q96SW2 whole entry): as the sequence (Q96SW2 whole entry) above
T6 sequence (Q16531 whole entry partner): as the sequence (Q16531 whole entry partner) above

[7] = system: Human acute T lymphocytic leukemia cell (Molt4); test: Tumor cell proliferation inhibition (CellTiter-Meiluncell luminescent cell viability assay); conditions: MOLT-4, 96 h; for inhibition at 0.01 µM: read-out: Inhibition Rate at 10 nM (%); for inhibition at 0.5 µM: read-out: Inhibition Rate at 500 nM (%)
[8] = system: Human multiple myeloma peripheral blood B lymphocyte cell (RPMI-8226); test: as above; conditions: RPMI-8226, 96 h; for inhibition at 0.01 µM: read-out: Inhibition Rate at 10 nM (%); for inhibition at 0.5 µM: read-out: Inhibition Rate at 500 nM (%)
[9] = Western blot, 24 hours of compound treatment, compounds tested at 50 nM and 500 nM (concentration for the table not stated)
[10] = 24 hours treatment, compounds at 50 nM and 500 nM (concentration behind the class not stated)

T1 sequence (Q96SW2 whole entry): as the sequence (Q96SW2 whole entry) above

| SMILES | inhibition at 0.5 µM [1] [%] | inhibition at 2 µM [1] [%] | inhibition at 0.01 µM [2] [%] | inhibition at 0.01 µM [3] [%] | inhibition at 0.5 µM [3] [%] | inhibition at 0.01 µM [4] [%] | inhibition at 0.5 µM [4] [%] | inhibition at 0.01 µM [5] [%] | inhibition at 0.5 µM [5] [%] | inhibition at 0.01 µM [6] [%] | inhibition at 0.5 µM [6] [%] | inhibition at 0.01 µM [7] [%] | inhibition at 0.5 µM [7] [%] | inhibition at 0.5 µM [2] [%] | GSPT1 substrate protein remaining % (GSPT1; [10]) | IKZF 1 substrate protein remaining % (IKZF1; [10]) | CK1α substrate protein remaining % (CK1α; [10]) | Wee1 substrate protein remaining % (WEE1; [10]) | IKZF2 substrate protein remaining % (IKZF2; [10]) | IKZF3 substrate protein remaining % (IKZF3; [10]) | also measured |
| --- | --- | --- | --- | --- | --- | --- | --- | --- | --- | --- | --- | --- | --- | --- | --- | --- | --- | --- | --- | --- | --- |
| O=C1CCC(N2Cc3cc(CN4CCN(c5ccccc5)CC4)ccc3C2=S)C(=O)N1 (centres unmarked) [GT-08205, 3-(5-((4-phenylpiperazin-1-yl)methyl)-1-thioxoisoindolin-2-yl)piperidine-2,6-dione] | 60 to 80 | 80 to 100 | 10 to 20 | 10 to 20 | 40 to 50 | 5 to 10 | 80 to 100 | 10 to 20 | 60 to 70 | 5 to 10 | 30 to 40 | 0 to 5 | 60 to 70 | – | – | – | – | – | – | – | Inhibition Rate at 500 nM (%) ([2]; MM.1S, 500 nM, 96 hours): la8; GSPT1 substrate protein remaining % (GSPT1; [9]): A (0% ≤ substrate protein remaining % ≤ 80%); IKZF 1 substrate protein remaining % (IKZF1; [9]): B (80%< substrate protein remaining %≤ 100%); CK1α substrate protein remaining % (CK1α; [9]): B (80%< substrate protein remaining %≤ 100%); Wee1 substrate protein remaining % (WEE1; [9]): A (0% ≤ substrate protein remaining % ≤ 80%); IKZF2 substrate protein remaining % (IKZF2; [9]): A (0% ≤ substrate protein remaining % ≤ 80%); IKZF3 substrate protein remaining % (IKZF3; [9]): A (0% ≤ substrate protein remaining % ≤ 80%) |
| COc1ccccc1N1CCN(Cc2cccc3c2CN(C2CCC(=O)NC2=O)C3=S)CC1 (centres unmarked) [GT-08260, 3-(4-((4-(2-methoxyphenyl)piperazin-1-yl)methyl)-1-thioxoisoindolin-2-yl)piperidine-2,6-dione] | 60 to 80 | 80 to 100 | – | – | – | – | – | 20 to 30 | 40 to 50 | – | – | – | – | – | – | – | – | – | – | – | GSPT1 substrate protein remaining % (GSPT1; [9]): A (0% ≤ substrate protein remaining % ≤ 80%); inhibition at 0.01 µM [8]: 70 to 80%; inhibition at 0.5 µM [8]: 70 to 80%; IKZF 1 substrate protein remaining % (IKZF1; [9]): B (80%< substrate protein remaining %≤ 100%); CK1α substrate protein remaining % (CK1α; [9]): B (80%< substrate protein remaining %≤ 100%); Wee1 substrate protein remaining % (WEE1; [9]): A (0% ≤ substrate protein remaining % ≤ 80%); IKZF2 substrate protein remaining % (IKZF2; [9]): B (80%< substrate protein remaining %≤ 100%); IKZF3 substrate protein remaining % (IKZF3; [9]): B (80%< substrate protein remaining %≤ 100%) |
| O=C1CCC(N2Cc3cc(CN4CC=C(c5ccoc5)CC4)ccc3C2=S)C(=O)N1 (centres unmarked) [GT-08328, 3-(5-((4-(furan-3-yl)-3,6-dihydropyridin-1(2H)-yl)methyl)-1-thioxoisoindolin-2-yl)piperidine-2,6-dione] | 60 to 80 | 80 to 100 | 50 to 60 | 5 to 10 | 60 to 70 | 40 to 60 | 80 to 100 | 10 to 20 | 80 to 100 | 0 to 5 | 40 to 50 | 10 to 20 | 80 to 100 | 80 to 100 | A (0% ≤ substrate protein remaining % ≤ 80%) | B (80%< substrate protein remaining %≤ 100%) | A (0% ≤ substrate protein remaining % ≤ 80%) | A (0% ≤ substrate protein remaining % ≤ 80%) | B (80%< substrate protein remaining %≤ 100%) | B (80%< substrate protein remaining %≤ 100%) | – |
| Cc1ccc(Sc2ccccc2N2CCN(Cc3cccc4c3CN(C3CCC(=O)NC3=O)C4=S)CC2)c(C)c1 (centres unmarked) [GT-08332, 3-(4-((4-(2-((2,4-dimethylphenyl)thio)phenyl)piperazin-1-yl)methyl)-1-thioxoisoindolin-2-yl)piperidine-2,6-dione] | – | – | 10 to 20 | -5 to 0 | 80 to 100 | -5 to 0 | 60 to 80 | -5 to 0 | 80 to 100 | 0 to 5 | 80 to 100 | -5 to 0 | 80 to 100 | 80 to 100 | A (0% ≤ substrate protein remaining % ≤ 80%) | A (0% ≤ substrate protein remaining % ≤ 80%) | A (0% ≤ substrate protein remaining % ≤ 80%) | A (0% ≤ substrate protein remaining % ≤ 80%) | A (0% ≤ substrate protein remaining % ≤ 80%) | B (80%< substrate protein remaining %≤ 100%) | – |

Now from value to compound, other results behind:

| inhibition at 0.5 µM [1] [%] | inhibition at 2 µM [1] [%] | SMILES | inhibition at 0.01 µM [2] [%] | inhibition at 0.01 µM [3] [%] | inhibition at 0.5 µM [3] [%] | inhibition at 0.01 µM [4] [%] | inhibition at 0.5 µM [4] [%] | inhibition at 0.01 µM [5] [%] | inhibition at 0.5 µM [5] [%] | inhibition at 0.01 µM [6] [%] | inhibition at 0.5 µM [6] [%] | inhibition at 0.01 µM [7] [%] | inhibition at 0.5 µM [7] [%] | inhibition at 0.5 µM [2] [%] | GSPT1 substrate protein remaining % (GSPT1; [10]) | IKZF 1 substrate protein remaining % (IKZF1; [10]) | CK1α substrate protein remaining % (CK1α; [10]) | Wee1 substrate protein remaining % (WEE1; [10]) | IKZF2 substrate protein remaining % (IKZF2; [10]) | IKZF3 substrate protein remaining % (IKZF3; [10]) | also measured |
| --- | --- | --- | --- | --- | --- | --- | --- | --- | --- | --- | --- | --- | --- | --- | --- | --- | --- | --- | --- | --- | --- |
| 60 to 80 | 80 to 100 | O=C1CCC(N2Cc3cc(CN4CCC(c5ccsc5)CC4)ccc3C2=S)C(=O)N1 (centres unmarked) [GT-08324, 3-(5-((4-(thiophen-3-yl)piperidin-1-yl)methyl)-1-thioxoisoindolin-2-yl)piperidine-2,6-dione] | 20 to 30 | 0 to 5 | 60 to 70 | 30 to 40 | 80 to 100 | 5 to 10 | 80 to 100 | -5 to 0 | 40 to 50 | 10 to 20 | 80 to 100 | 80 to 100 | A (0% ≤ substrate protein remaining % ≤ 80%) | A (0% ≤ substrate protein remaining % ≤ 80%) | A (0% ≤ substrate protein remaining % ≤ 80%) | A (0% ≤ substrate protein remaining % ≤ 80%) | A (0% ≤ substrate protein remaining % ≤ 80%) | B (80%< substrate protein remaining %≤ 100%) | – |
| 40 to 53 | 80 to 100 | O=C1CCC(N2Cc3cc(CN4CCC(c5cccc(F)c5F)CC4)ccc3C2=S)C(=O)N1 (centres unmarked) [GT-08331, 3-(5-((4-(2,3-difluorophenyl)piperidin-1-yl)methyl)-1-thioxoisoindolin-2-yl)piperidine-2,6-dione] | 10 to 20 | 5 to 10 | 70 to 80 | – | – | 5 to 10 | 80 to 100 | 5 to 10 | 50 to 60 | 10 to 20 | 80 to 100 | 80 to 100 | A (0% ≤ substrate protein remaining % ≤ 80%) | A (0% ≤ substrate protein remaining % ≤ 80%) | A (0% ≤ substrate protein remaining % ≤ 80%) | A (0% ≤ substrate protein remaining % ≤ 80%) | A (0% ≤ substrate protein remaining % ≤ 80%) | B (80%< substrate protein remaining %≤ 100%) | inhibition at 0.01 µM [8]: 10 to 20%; inhibition at 0.5 µM [8]: 40 to 50% |
